Inconclusive results and toxic doses are left out. Rule as the data show it: active = T/C of 150% or more; inactive = T/C below 125%.
Test system: L1210 leukemia ip in BDF1 mice, survival T/C
Test: NCI In Vivo Anticancer Drug Screen. Data for tumor model L1210 Leukemia (intraperitoneal) in B6D2F1 (BDF1) mice
Conditions: endpoint: mean survival time, higher = longer survival
Method in brief: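 Value reflects the ratio of survival in compound-treated mice to survival in vehicle-treated controls, with both groups carrying the same transplanted tumor.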

Measured: T/C

[Cl][Bi]([Cl])([c]1ccccc1)([c]1ccccc1)[c]1ccccc1
inactive: dose: 100.0 mg/kg/injection, schedule: Q04DX002 (ip), vehicle: Klucel (hydroxypropylcellulose) (HPC) 98 % of control | dose: 200.0 mg/kg/injection, schedule: Q04DX002 (ip), vehicle: Klucel (hydroxypropylcellulose) (HPC) 92 % of control | dose: 400.0 mg/kg/injection, schedule: Q04DX002 (ip), vehicle: Klucel (hydroxypropylcellulose) (HPC) 98 % of control

CCOc1ccc(-n2c(O)c(N=Nc3ccccc3)c(=O)n(-c3ccccc3)c2=S)cc1
inactive: dose: 50.0 mg/kg/injection, schedule: Q04DX003 (ip), vehicle: acetone 94 % of control | dose: 100.0 mg/kg/injection, schedule: Q04DX003 (ip), vehicle: acetone 89 % of control | dose: 200.0 mg/kg/injection, schedule: Q04DX003 (ip), vehicle: acetone 96 % of control

COc1cc2c3c(c1O)C1(C=CC(=O)C=C1)CC3N(C)CC2 (centres undefined)
inactive: dose: 100.0 mg/kg/injection, schedule: Q01DX001 (ip), vehicle: saline 92 % of control | dose: 200.0 mg/kg/injection, schedule: Q01DX001 (ip), vehicle: saline 94 % of control | dose: 400.0 mg/kg/injection, schedule: Q01DX001 (ip), vehicle: saline 90 % of control

— PubChem BioAssay AID248 (DTP/NCI, 2004)
